This is an account of results in US20140057915A1, “KINASE INHIBITORS” (TOPIVERT PHARMA LIMITED, priority 2012, published 2014).

In general, IC50 refers to the point on the concentration scale where inhibition reaches its midpoint.

One data set deals with IL-8 release, PBMCs. Kind of data set: LPS-induced IL-8 release in PBMC cells. Type of data set: cell-based. Particulars: Homo sapiens, LPS stimulated, read-out: IC50 Values for Inhibition of Cytokine Release, PBMCs, IL-8. The gist of the method:
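PBMCs from healthy donors pretreated with compound for 2 h, then stimulated with 1 ng/ml LPS (E. coli 0111:B4) for 24 h at 37 °C, 5% CO2. Supernatant IL-8 and TNFα measured by sandwich ELISA with fluorescence read-out.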

The next data set relates to IL-2 release, PBMCs. Put plainly: IL-2 release in CD3/CD28 stimulated PBMC cells. The format is cell-based. The conditions noted are these: Homo sapiens, read-out: IC50 Values for Inhibition of Cytokine Release, PBMCs, IL-2.
For a further data set, the system named is IL-8 release, HT29 cells. Kind of data set: IL-1β-induced IL-8 release in HT29 cells. The format is cell-based. The conditions noted are these: Homo sapiens, HT-29; IL-1β stimulated; read-out: IC50 Values for Inhibition of Cytokine Release, HT29 cells, IL-8. The procedure:
(d) IL-1β-Induced IL-8 Release in HT29 Cells
HT29 cells, a human colon adenocarcinoma cell line, are plated in a 96 well plate (24 hrs) and pre-treated with compounds at the desired concentration for 2 hours before addition of 5 ng/ml of IL-1β (Abeam) for 24 hours, Supernatants are harvested for IL-8 quantification by Sandwich ELISA (Duo-set, R&D System). The IC50 is determined from the dose response curve.

In data set [1] the test system is ICAM-1 expression, BEAS2B cells. Put plainly: Poly I:C-induced ICAM-1 expression in BEAS2B cells. Particulars: Homo sapiens, BEAS-2B; read-out: Poly IC induced ICAM1 in BEAS2B, IC50. The format is cell-based. A digest of the protocol: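 BEAS2B human bronchial epithelial cells pre-incubated 2 h with compound, then transfected with poly I:C (1 μg/mL) plus Oligofectamine. After 18 h, cell-surface ICAM-1 read by cell-based ELISA (A450–655), normalised to Crystal Violet cell number (A595); inhibition calculated against vehicle control at each concentration.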

The test system of the next data set is IFN gamma release, PBMCs. Kind of data set: IFN gamma release in CD3/CD28 stimulated PBMC cells. The format is cell-based. The conditions noted are these: Homo sapiens, read-out: IC50 Values for Inhibition of Cytokine Release, PBMCs, IFNγ.
The nature of data set [2]: Hepatic microsomal stability. Type of data set: in vitro ADME, human. Particulars: for Mean hepatic extraction ratio (Eh) / microsomal CLint at 0.1 μM: human hepatic microsomes, arithmetic mean of two experiments; for microsomal CLint at 0.1 μM: pooled liver microsomes, read-out: Mean intrinsic clearance; for hepatic clearance: summary of Tables 9a and 9b (microsomes and hepatocytes; human, dog, rat). The procedure: (§1) Hepatic Microsomal Stability
(§2) • Microsomal stability assays were performed with incubations of test compounds at 0.1 μM (n=2, final DMSO concentration 0.25%), and carried out using pooled human, dog and rat hepatic microsomes from Xenotech (Lots 1210153, 0810143 and 1110042, respectively) at 0.25 mg protein/mL in the presence of co-factor, NADPH. The incubations were performed at 37° C. with 100 μL aliquots taken from the incubation, at 0, 2, 5, 10 and 20 minutes and reactions terminated by addition of 100 μL of acetonitrile containing carbamazepine as analytical internal standard. […] Half-life values were calculated from the relationship
(§3) where λ was the slope of the Ln concentration vs time curve. • The in vitro intrinsic clearance, CIint (mL/min/kg), was calculated and scaled to hepatic extraction ratios using the following scaling parameters and formulae.
(§4) CIint(tissue clearance) mL/min/kg=[0.693/t½(min)]×[1/microsomal protein concentration mg/mL]×[mg microsomes/g liver]×[g liver/kg body weight]
(§5) CIint(hepatic clearance) mL/min/kg=hepatic blood flow×CIint/(hepatic blood flow+CIint)
(§6) Hepatic extraction ratio(Eh)=CIint(hepatic clearance) mL/min/kg/hepatic blood flow(mL/min/kg)

The nature of data set [3]: Hepatic microsomal stability. The format is in vitro ADME. Particulars: arithmetic mean of two experiments; for microsomal CLint at 0.1 μM: pooled liver microsomes, read-out: Mean intrinsic clearance. The procedure: as §1, §2, §3, §4, §5, §6
For orientation: Liver microsomes are a subcellular fraction often used to study metabolism.

Like-named read-outs stand apart in the source and are kept apart here.

Take `COc1cc(Nc2cc(Oc3ccc(NC(=O)Nc4cc(C(C)(C)C)nn4-c4ccc(C)cc4)c4ccccc34)ccn2)cc(C(=O)NCCN2CCOCC2)c1` [Example 1, 3-((4-((4-(3-(3-(tert-Butyl)-1-(p-tolyl)-1H-pyrazol-5-yl)ureido)naphthalen-1-yl)oxy)pyridin-2-yl)amino)-5-methoxy-N-(2-morpholinoethyl)benzamide]: the half-maximal inhibitory concentration (IC50) turned out to be 2.4 nM in the data set with IL-8 release, PBMCs; 84.3 nM in the data set with IL-2 release, PBMCs; 10.2 nM in the data set with IL-8 release, HT29 cells; 3.4 nM in data set [1]; 3 nM with IFN gamma release, PBMCs.
Regarding `Cc1ccc(-n2nc(C(C)C)cc2NC(=O)Nc2ccc(Oc3ccnc(Nc4cc(C(=O)NCCN5CCOCC5)cc(C(F)(F)F)c4)n3)c3ccccc23)cc1` [Example 7, 3-((4-((4-(3-(3-isopropyl-1-(p-tolyl)-1H-pyrazol-5-yl)ureido)naphthalen-1-yl)oxy)pyrimidin-2-yl)amino)-N-(2-morpholinoethyl)-5-(trifluoromethyl)benzamide], the half-maximal inhibitory concentration (IC50) in the data set with IL-8 release, PBMCs came to 2.4 nM; in the data set with IL-2 release, PBMCs, 260 nM; in data set [1], 1.5 nM.
`COc1cc(Nc2nccc(Oc3ccc(NC(=O)Nc4cc(C(C)C)nn4-c4ccc(C)cc4)c4ccccc34)n2)cc(C(=O)NCCN2CCOCC2)c1` [Example 8, 3-((4-((4-(3-(3-Isopropyl-1-(p-tolyl)-1H-pyrazol-5-yl)ureido)naphthalen-1-yl)oxy)pyrimidin-2-yl)amino)-5-methoxy-N-(2-morpholinoethyl)benzamide]: the 50% inhibitory concentration (IC50) in the data set with IL-8 release, PBMCs was 1.8 nM; in the data set with IL-2 release, PBMCs it was 35.3 nM; in the data set with IL-8 release, HT29 cells, 4.1 nM; in data set [1], 1.1 nM.
As to `COc1cc(Nc2nccc(Oc3ccc(NC(=O)Nc4cc(C(F)(F)C(F)(F)F)nn4-c4ccc(C)cc4)c4ccccc34)n2)cc(C(=O)NCCN2CCOCC2)c1` [Example 9], the IC50 with IL-8 release, PBMCs came out at 2.3 nM; in the data set on IL-2 release, PBMCs, 132 nM; in data set [1], 6.9 nM; in the data set on IFN gamma release, PBMCs, 7.3 nM.
With `COCCNC(=O)c1cc(Nc2nccc(Oc3ccc(NC(=O)Nc4cc(C(C)C)nn4-c4ccc(OC)cc4)c4ccccc34)n2)cc(OC)c1` [Example 11, 3-((4-((4-(3-(3-Isopropyl-1-(4-methoxyphenyl)-1H-pyrazol-5-yl)ureido)naphthalen-1-yl)oxy)pyrimidin-2-yl)amino)-5-methoxy-N-(2-methoxyethyl)benzamide], the 50% inhibitory concentration (IC50) in the data set on IL-8 release, PBMCs amounted to 3 nM; in the data set on IL-2 release, PBMCs, 27.5 nM; in data set [1], 1.2 nM.
For `COc1ccc(-n2nc(C3(C)COC3)cc2NC(=O)Nc2ccc(Oc3ccnc(Nc4cccc(C(=O)NCCN5CCOCC5)c4)n3)c3ccccc23)cc1` [Example 23, 3-((4-((4-(3-(1-(4-methoxyphenyl)-3-(3-methyloxetan-3-yl)-1H-pyrazol-5-yl)ureido)naphthalen-1-yl)oxy)pyrimidin-2-yl)amino)-N-(2-morpholinoethyl)benzamide], in data set [1], the IC50 worked out at 27.7 nM.
Regarding `COc1ccc(-n2nc(C(C)(C)C)cc2NC(=O)Nc2ccc(Oc3ccnc(Nc4cc(Br)cc(C(N)=O)c4)n3)c3ccccc23)cc1` [Example 42, 3-bromo-5-((4-((4-(3-(3-(tert-butyl)-1-(4-methoxyphenyl)-1H-pyrazol-5-yl)ureido)naphthalen-1-yl)oxy)pyrimidin-2-yl)amino)benzamide], the half-maximal inhibitory concentration (IC50) in data set [1] amounted to 2.3 nM.
For the compound `C#Cc1cc(Nc2nccc(Oc3ccc(NC(=O)Nc4cc(C(C)C)nn4-c4ccc(C)cc4)c4ccccc34)n2)cc(C(=O)NCCN2CCOCC2)c1` [Example 46, 3-ethynyl-5-((4-((4-(3-(3-isopropyl-1-(p-tolyl)-1H-pyrazol-5-yl)ureido)naphthalen-1-yl)oxy)pyrimidin-2-yl)amino)-N-(2-morpholinoethyl)benzamide], the concentration for half-maximal inhibition (IC50) in the data set on IL-8 release, PBMCs came to 1.1 nM; with IL-2 release, PBMCs, 59.5 nM; with IL-8 release, HT29 cells it was 5.4 nM; in the data set on IFN gamma release, PBMCs it was 2.7 nM.
On to `COc1cc(Nc2nccc(Oc3ccc(NC(=O)Nc4cc(C5CC5)nn4-c4ccc(C)cc4)c4ccccc34)n2)cc(C(=O)NCCN2CCOCC2)c1` [Example 50, 3-((4-((4-(3-(3-cyclopropyl-1-(p-tolyl)-1H-pyrazol-5-yl)ureido)naphthalen-1-yl)oxy)pyrimidin-2-yl)amino)-5-methoxy-N-(2-morpholinoethyl)benzamide], for which the IC50 was determined as 7.3 nM in the data set with IL-8 release, PBMCs and 16.6 nM in data set [1].
As for `COc1cc(Nc2nccc(Oc3ccc(NC(=O)Nc4cc(C5(C)CC5)nn4-c4ccc(C)cc4)c4ccccc34)n2)cc(C(=O)NCCN2CCOCC2)c1` [Example 51, 3-methoxy-5-((4-((4-(3-(3-(1-methylcyclopropyl)-1-(p-tolyl)-1H-pyrazol-5-yl)ureido)naphthalen-1-yl)oxy)pyrimidin-2-yl)amino)-N-(2-morpholinoethyl)benzamide], the half-maximal inhibitory concentration (IC50) in data set [1] came out at 3.6 nM.
As for `COc1ccc(-n2nc(C(C)C)cc2NC(=O)Nc2ccc(Oc3ccnc(Nc4cc(OC)cc(C(=O)NCCN5CCOCC5)c4)n3)c3ccccc23)cc1` [Example 53, 3-((4-((4-(3-(3-isopropyl-1-(4-methoxyphenyl)-1H-pyrazol-5-yl)ureido)naphthalen-1-yl)oxy)pyrimidin-2-yl)amino)-5-methoxy-N-(2-morpholinoethyl)benzamide], the IC50 in the data set on IL-8 release, PBMCs is 3.1 nM; with IL-2 release, PBMCs, 44.1 nM; in data set [1], 4 nM.
Regarding `C#Cc1cc(Nc2nccc(Oc3ccc(NC(=O)Nc4cc(C(C)(C)C)nn4-c4ccc(OC)cc4)c4ccccc34)n2)cc(C(=O)NCCN2CCOCC2)c1` [Example 77, 3-((4-((4-(3-(3-(tert-Butyl)-1-(4-methoxyphenyl)-1H-pyrazol-5-yl)ureido)-naphthalen-1-yl)oxy)pyrimidin-2-yl)amino)-5-ethynyl-N-(2-morpholinoethyl)benzamide], the half-inhibitory concentration (IC50) in the data set on IL-8 release, PBMCs worked out at 1.1 nM; in the data set on IL-2 release, PBMCs it was 42.8 nM; in the data set on IL-8 release, HT29 cells it was 2 nM; in the data set on IFN gamma release, PBMCs, 0.8 nM. Moreover, the figures for the “Mean hepatic extraction ratio (Eh)” value in data set [2], in data set [3] (dog hepatic microsomes) and in data set [3] (rat hepatic microsomes) were 0.94, 0.94 and 0.82, respectively. In addition, the microsomal CLint at 0.1 μM in data set [2] stood at 308 µL/min/mg; in data set [3] (dog hepatic microsomes), 189 µL/min/mg; in data set [3] (rat hepatic microsomes), 120 µL/min/mg. Moreover, the hepatic clearance result in data set [2] is recorded as “high hepatic clearance”.
For the compound `C#Cc1cc(Nc2nccc(Oc3ccc(NC(=O)Nc4cc(C(C)(C)C)nn4-c4ccc(N(C)C)cc4)c4ccccc34)n2)cc(C(=O)NCCN2CCOCC2)c1` [Example 80, 3-((4-((4-(3-(3-(tert-Butyl)-1-(4-(dimethylamino)phenyl)-1H-pyrazol-5-yl)ureido)naphthalen-1-yl)oxy)pyrimidin-2-yl)amino)-5-ethynyl-N-(2-morpholinoethyl)-benzamide], the IC50 in the data set with IL-8 release, PBMCs was determined as 1.5 nM; in the data set with IL-2 release, PBMCs it was 2.3 nM; with IL-8 release, HT29 cells it was 6.2 nM; in the data set on IFN gamma release, PBMCs, 1.8 nM. Moreover, the entries for the “Mean hepatic extraction ratio (Eh)” value in data set [2], in data set [3] (dog hepatic microsomes) and in data set [3] (rat hepatic microsomes) were 0.93, 0.91 and 0.77, respectively. Further, the microsomal CLint at 0.1 μM in data set [2] was found to be 216 µL/min/mg; in data set [3] (dog hepatic microsomes) it was 146 µL/min/mg; in data set [3] (rat hepatic microsomes), 91 µL/min/mg. The hepatic clearance result in data set [2] is “high hepatic clearance”.
